Legend:
[1] = 5-day PK with topical ocular Compound-I in cyclodextrin-based solutions (Example 6); format: in vivo, Dutch-Belted rabbits; conditions: HPβCD solutions; for concentration at 1 h: q.d. groups (4, 5a, 6a, 7, 8, 11, 12), 4 days, 1 hr after first daily dose day 5
Description: All doses were administered with ±1 hour of the scheduled dose time, except on day 1 for Groups 1, 4, and 10. The first dose on day 1 was administered at 12:00 PM, and the second dose (for Groups 1 and 10) was administered approximately 4 hours after. This was due to delayed arrival of formulations. All other dosing for these groups was as scheduled. On day 1, Groups 4-8, and 11-12 received one dose (q.d.) for four (4) days. On days 1 through 4, Groups 1-3, and 9-10 received b.i.d. dosing approximately 8 hours apart for four (4) days.
Ocular sampling occurred one hour following the first daily dose on day 5 for all groups, except Groups 5b and 6b, where ocular sampling occurred 24 hours after the first daily dose on day 4.
Blood samples for plasma collection were obtained just prior to scheduled euthanasia for all animals. […] Cornea, central retina, and central choroid samples from groups 1-12 were assayed. Aqueous humor, peripheral retina, and peripheral choroid samples were not assayed.

[2] = PK with topical ocular Compound-I in sodium phosphate-based Gel Drop; format: in vivo, Dutch-Belted rabbits; conditions: Dutch-Belted, rabbit, Gel Drop 6 mg/ml, 3x per day, 4 days, 1 hour after last dose
Text: The Gel Drop of Compound-I was applied to eyes of Dutch-belted rabbits.

[3] = Ocular pharmacokinetics of formulations, Example 20-5; format: in vivo, Dutch Belted rabbits
Description: The study design (Table 19-1) consisted of forty-seven (47) Dutch Belted rabbits, each receiving a 30 μL bilateral topical ocular dose. Various suspension formulations of the present application were evaluated and compared against a cyclodextrin-based eye drops solution (Control Group 1, Table 19-1). Formula II or Compound-I was used in the test suspensions as well as the Eye Drops solution.
Ocular sampling occurred one hour following the first daily dose on Day 5 for all groups. Whole blood samples using K2EDTA as an anticoagulant were collected from all animals on Day 5, 1 hour post dose. The whole blood was placed on ice until samples were spun in a centrifuge to separate the plasma. Aqueous humor, conjunctiva, cornea, central retina, peripheral retina, central choroid, and peripheral choroid samples were collected following necropsy. Samples were then frozen at −70° C. or lower. For all Groups 1-15, plasma, central retina, central choroid, and cornea samples were assayed. For Group 5 only, samples were analyzed for Vitamin K3.
An analytical method for the analysis of Vitamin K3 was determined in plasma, central retina, central choroid, and cornea samples from Group 5 animals. A calibration curve prepared in control vitreous humor was used to determine the concentration of Vitamin K3. Internal standard (IS) responses were inconsistent for the central choroid and plasma samples. Thus, positive plasma results were likely due to the reduced IS response.

## Cl.NC(=O)c1c(OCc2c(F)cc(Br)cc2F)nsc1NC(=O)NCCCCN1CCCC1 [Compound-I, 3-[(4-bromo-2,6-difluorophenyl)methoxy]-5-[[[[4-(1-pyrrolidinyl)butyl]amino]carbonyl]amino]-4-isothiazolecarboxamide hydrochloride]
[1]; Dutch-Belted, rabbit, central choroid, topical, 30 μL bilateral, q.d. groups 5b, 6b, 24 hr after first daily dose day 4
  concentration at 24 h: 0.194 µM
[1]; Dutch-Belted, rabbit, central choroid, topical, 30 μL bilateral, read-out: Average Concentration Central Choroid
  concentration at 1 h: 0.203 µM
[1]; Dutch-Belted, rabbit, central retina, topical, 30 μL bilateral, read-out: Average Concentration Central Retina
  concentration at 1 h: 0.0481 µM
[1]; q.d. groups 5b, 6b, 24 hr after first daily dose day 4
  Average Concentration Central Retina: <LLOQ
[2]; aqueous humor (AH), read-out: Mean [AH]
  concentration at 1 h: 0.0509 µM
[2]; plasma, read-out: [plasma]
  concentration at 1 h: 0.0125 µM
[3]; Dutch Belted, rabbit, central choroid, topical, 1 mg/mL (30 μL per eye, bilateral), Group 7: 1 mg/mL suspension, 50 μm particles, TRIS 0.60%, glycerol 2%, HEC 0.2%, HPMC 0.08%, Vitamin K3 1 μM, pH 6, QD for 4 days, 1 hr post dose on Day 5, read-out: Central Choroid concentration
  concentration at 1 h: 0.059 µM
[3]; Dutch Belted, rabbit, central choroid, topical, 2 mg/mL (30 μL per eye, bilateral), Group 9: 2 mg/mL suspension, 50 μm particles, TRIS 0.60%, glycerol 2%, HEC 0.2%, HPMC 0.08%, Vitamin K3 1 μM, pH 6, QD for 4 days, 1 hr post dose on Day 5, read-out: Central Choroid concentration
  concentration at 1 h: 0.0908 µM
[3]; Dutch Belted, rabbit, central choroid, topical, 4 mg/mL (30 μL per eye, bilateral), Group 5: 4 mg/mL suspension (Control), 30 μm particles (Table 19-1) / Native (≈50) (Table 19-2), TRIS 0.60%, glycerol 2%, HEC 0.2%, HPMC 0.08%, Vitamin K3 1 μM, pH 6, QD for 4 days, 1 hr post dose on Day 5, read-out: Central Choroid concentration
  concentration at 1 h: 0.129 µM
[3]; Dutch Belted, rabbit, central choroid, topical, 4 mg/mL, 30 μL per eye, pH 6, Group 1: 4 mg/mL Ophthalmic Solution, pH 6 (Control), QD for 4 days, 1 hr post dose on Day 5, read-out: Central Choroid concentration
  concentration at 1 h: 0.129 µM
[3]; Dutch Belted, rabbit, central choroid, topical, 4 mg/mL, 30 μL per eye, pH 6, read-out: Central Choroid concentration
  concentration at 1 h: 0.151 µM
[3]; Dutch Belted, rabbit, central choroid, topical, 30 μL per eye, Group 10: 2 mg/mL suspension, 50 μm particles, TRIS 0.60%, glycerol 2%, HEC 0.2%, HPMC 0.08%, Vitamin K3 1 μM, pH 6, BID for 4 days, 1 hr post dose on Day 5, read-out: Central Choroid concentration
  concentration at 1 h: 0.116 µM
[3]; Dutch Belted, rabbit, central choroid, topical, 30 μL per eye, Group 11: 6 mg/mL suspension, 50 μm particles, TRIS 0.60%, glycerol 2%, HEC 0.2%, HPMC 0.08%, Vitamin K3 1 μM, pH 6, QD for 4 days, 1 hr post dose on Day 5, read-out: Central Choroid concentration
  concentration at 1 h: 0.148 µM
[3]; Dutch Belted, rabbit, central choroid, topical, 30 μL per eye, Group 12: 10 mg/mL suspension, 50 μm particles, TRIS 0.60%, glycerol 2%, HEC 0.2%, HPMC 0.08%, Vitamin K3 1 μM, pH 6, QD for 4 days, 1 hr post dose on Day 5, read-out: Central Choroid concentration
  concentration at 1 h: 0.199 µM
[3]; Dutch Belted, rabbit, central retina, topical, 1 mg/mL (30 μL per eye, bilateral), Group 7: 1 mg/mL suspension, 50 μm particles, TRIS 0.60%, glycerol 2%, HEC 0.2%, HPMC 0.08%, Vitamin K3 1 μM, pH 6, QD for 4 days, 1 hr post dose on Day 5, read-out: Central Retina concentration
  concentration at 1 h: 0.0256 µM
[3]; Dutch Belted, rabbit, central retina, topical, 2 mg/mL (30 μL per eye, bilateral), Group 9: 2 mg/mL suspension, 50 μm particles, TRIS 0.60%, glycerol 2%, HEC 0.2%, HPMC 0.08%, Vitamin K3 1 μM, pH 6, QD for 4 days, 1 hr post dose on Day 5, read-out: Central Retina concentration
  concentration at 1 h: 0.0634 µM
[3]; Dutch Belted, rabbit, central retina, topical, 4 mg/mL (30 μL per eye, bilateral), Group 5: 4 mg/mL suspension (Control), 30 μm particles (Table 19-1) / Native (≈50) (Table 19-2), TRIS 0.60%, glycerol 2%, HEC 0.2%, HPMC 0.08%, Vitamin K3 1 μM, pH 6, QD for 4 days, 1 hr post dose on Day 5, read-out: Central Retina concentration
  concentration at 1 h: 0.0442 µM
[3]; Dutch Belted, rabbit, central retina, topical, 4 mg/mL, 30 μL per eye, pH 6, Group 1: 4 mg/mL Ophthalmic Solution, pH 6 (Control), QD for 4 days, 1 hr post dose on Day 5, read-out: Central Retina concentration
  concentration at 1 h: 0.0551 µM
[3]; Dutch Belted, rabbit, central retina, topical, 30 μL per eye, Group 11: 6 mg/mL suspension, 50 μm particles, TRIS 0.60%, glycerol 2%, HEC 0.2%, HPMC 0.08%, Vitamin K3 1 μM, pH 6, QD for 4 days, 1 hr post dose on Day 5, read-out: Central Retina concentration
  concentration at 1 h: 0.0915 µM
[3]; Dutch Belted, rabbit, central retina, topical, 30 μL per eye, Group 12: 10 mg/mL suspension, 50 μm particles, TRIS 0.60%, glycerol 2%, HEC 0.2%, HPMC 0.08%, Vitamin K3 1 μM, pH 6, QD for 4 days, 1 hr post dose on Day 5, read-out: Central Retina concentration
  concentration at 1 h: 0.114 µM
[3]; Dutch Belted, rabbit, cornea, topical, 1 mg/mL (30 μL per eye, bilateral), Group 7: 1 mg/mL suspension, 50 μm particles, TRIS 0.60%, glycerol 2%, HEC 0.2%, HPMC 0.08%, Vitamin K3 1 μM, pH 6, QD for 4 days, 1 hr post dose on Day 5, read-out: Cornea concentration
  concentration at 1 h: 1.24 µM
[3]; Dutch Belted, rabbit, cornea, topical, 2 mg/mL (30 μL per eye, bilateral), Group 9: 2 mg/mL suspension, 50 μm particles, TRIS 0.60%, glycerol 2%, HEC 0.2%, HPMC 0.08%, Vitamin K3 1 μM, pH 6, QD for 4 days, 1 hr post dose on Day 5, read-out: Cornea concentration
  concentration at 1 h: 2.28 µM
[3]; Dutch Belted, rabbit, cornea, topical, 4 mg/mL (30 μL per eye, bilateral), Group 5: 4 mg/mL suspension (Control), 30 μm particles (Table 19-1) / Native (≈50) (Table 19-2), TRIS 0.60%, glycerol 2%, HEC 0.2%, HPMC 0.08%, Vitamin K3 1 μM, pH 6, QD for 4 days, 1 hr post dose on Day 5, read-out: Cornea concentration
  concentration at 1 h: 4.47 µM
[3]; Dutch Belted, rabbit, cornea, topical, 4 mg/mL, 30 μL per eye, pH 6, Group 1: 4 mg/mL Ophthalmic Solution, pH 6 (Control), QD for 4 days, 1 hr post dose on Day 5, read-out: Cornea concentration
  concentration at 1 h: 14.3 µM
[3]; Dutch Belted, rabbit, cornea, topical, 30 μL per eye, Group 10: 2 mg/mL suspension, 50 μm particles, TRIS 0.60%, glycerol 2%, HEC 0.2%, HPMC 0.08%, Vitamin K3 1 μM, pH 6, BID for 4 days, 1 hr post dose on Day 5, read-out: Cornea concentration
  concentration at 1 h: 5 µM
[3]; Dutch Belted, rabbit, cornea, topical, 30 μL per eye, Group 11: 6 mg/mL suspension, 50 μm particles, TRIS 0.60%, glycerol 2%, HEC 0.2%, HPMC 0.08%, Vitamin K3 1 μM, pH 6, QD for 4 days, 1 hr post dose on Day 5, read-out: Cornea concentration
  concentration at 1 h: 7.07 µM
[3]; Dutch Belted, rabbit, cornea, topical, 30 μL per eye, Group 12: 10 mg/mL suspension, 50 μm particles, TRIS 0.60%, glycerol 2%, HEC 0.2%, HPMC 0.08%, Vitamin K3 1 μM, pH 6, QD for 4 days, 1 hr post dose on Day 5, read-out: Cornea concentration
  concentration at 1 h: 24.7 µM
[3]; Dutch Belted, rabbit, plasma, topical, 1 mg/mL (30 μL per eye, bilateral), Group 7: 1 mg/mL suspension, 50 μm particles, TRIS 0.60%, glycerol 2%, HEC 0.2%, HPMC 0.08%, Vitamin K3 1 μM, pH 6, QD for 4 days, 1 hr post dose on Day 5, read-out: Plasma concentration
  concentration at 1 h: 0.00218 µM
[3]; Dutch Belted, rabbit, plasma, topical, 2 mg/mL (30 μL per eye, bilateral), Group 9: 2 mg/mL suspension, 50 μm particles, TRIS 0.60%, glycerol 2%, HEC 0.2%, HPMC 0.08%, Vitamin K3 1 μM, pH 6, QD for 4 days, 1 hr post dose on Day 5, read-out: Plasma concentration
  concentration at 1 h: 0.00405 µM
[3]; Dutch Belted, rabbit, plasma, topical, 4 mg/mL (30 μL per eye, bilateral), Group 5: 4 mg/mL suspension (Control), 30 μm particles (Table 19-1) / Native (≈50) (Table 19-2), TRIS 0.60%, glycerol 2%, HEC 0.2%, HPMC 0.08%, Vitamin K3 1 μM, pH 6, QD for 4 days, 1 hr post dose on Day 5, read-out: Plasma concentration
  concentration at 1 h: 0.00626 µM
[3]; Dutch Belted, rabbit, plasma, topical, 4 mg/mL, 30 μL per eye, pH 6, Group 1: 4 mg/mL Ophthalmic Solution, pH 6 (Control), QD for 4 days, 1 hr post dose on Day 5, read-out: Plasma concentration
  concentration at 1 h: 0.00428 µM
[3]; Dutch Belted, rabbit, plasma, topical, 30 μL per eye, Group 11: 6 mg/mL suspension, 50 μm particles, TRIS 0.60%, glycerol 2%, HEC 0.2%, HPMC 0.08%, Vitamin K3 1 μM, pH 6, QD for 4 days, 1 hr post dose on Day 5, read-out: Plasma concentration
  concentration at 1 h: 0.00772 µM
[3]; Dutch Belted, rabbit, plasma, topical, 30 μL per eye, Group 12: 10 mg/mL suspension, 50 μm particles, TRIS 0.60%, glycerol 2%, HEC 0.2%, HPMC 0.08%, Vitamin K3 1 μM, pH 6, QD for 4 days, 1 hr post dose on Day 5, read-out: Plasma concentration
  concentration at 1 h: 0.00861 µM
[3]; Group 2: 4 mg/mL suspension, 30 μm particles, TRIS 0.60%, glycerol 2%, HEC 0.2%, HPMC 0.08%, Vitamin K3 1 μM, pH 6, QD for 4 days, 1 hr post dose on Day 5
  Plasma concentration: 0.00464 µM
[3]; Group 2: 4 mg/mL suspension, 30 μm particles, TRIS 0.60%, glycerol 2%, HEC 0.2%, HPMC 0.08%, Vitamin K3 1 μM, pH 6, QD for 4 days, 1 hr post dose on Day 5, read-out: Central Choroid concentration
  concentration at 1 h: 0.135 µM
